Measurements from ChEMBL document CHEMBL1128242, “Polyiodinated triglyceride analogs as potential computed tomography imaging agents for the liver” (J Med Chem, 1995).

Assays:
Rattus norvegicus [1] = experiment: Distribution of radioactivity was determined in liver at 48 hr after intravenous administration of 1,3-Disubstituted Triacylglycerols in rats; format: ADME, organism-based; settings: in vivo
Rattus norvegicus [2] = experiment: Analysis of lipid-soluble radioactivity in plasma 0.5 hour after iv administration of [125I]-labeled 2-Oleoyl 1,3-disubstituted Triacylglycerols and represented as % CHCl3/CH3OH from rat; format: ADME, organism-based; settings: in vivo
Rattus norvegicus [3] = experiment: Distribution of radioactivity was determined in plasma at 30 min after intravenous administration of [125I]-labeled 2-oleoglycerol 1,3-Bis-[omega-(3-amino-2,4,6-triiodophenyl)alkanoates] in rats; format: ADME, organism-based; settings: in vivo, 0.5 h
Rattus norvegicus [4] = experiment: Analysis of lipid-soluble radioactivity in liver 24 hour after iv administration of [125I]-labeled 2-Oleoyl 1,3-disubstituted Triacylglycerols expressed as %parent compound (by TLC with authentic [125I]-labeled standard) from rat; format: ADME, organism-based; settings: in vivo
Rattus norvegicus [5] = experiment: Distribution of radioactivity was determined in blood at 30 min after intravenous administration of 1,3-Disubstituted Triacylglycerols in rats; format: ADME, organism-based; settings: in vivo, 0.5 h
Rattus norvegicus [6] = experiment: Analysis of lipid-soluble radioactivity in plasma 0.5 hour after iv administration of [125I]-labeled 2-Oleoyl 1,3-disubstituted Triacylglycerols expressed as %parent compound (by TLC with authentic [125I]-labeled standard) from rat; format: ADME, organism-based; settings: in vivo
Rattus norvegicus [7] = experiment: Distribution of radioactivity was determined in kidney at 30 min after intravenous administration of [125I]-labeled 2-oleoglycerol 1,3-Bis-[omega-(3-amino-2,4,6-triiodophenyl)alkanoates] in rats; format: ADME, organism-based; settings: in vivo, 0.5 h
Rattus norvegicus [8] = experiment: Distribution of radioactivity was determined in plasma at 3h after intravenous administration of [125I]-labeled 2-oleoglycerol 1,3-Bis-[omega-(3-amino-2,4,6-triiodophenyl)alkanoates] in rats; format: ADME, organism-based; settings: in vivo
Rattus norvegicus [9] = experiment: Analysis of lipid-soluble radioactivity in liver 0.5 hour after iv administration of [125I]-labeled 2-Oleoyl 1,3-disubstituted Triacylglycerols expressed as %parent compound (by TLC with authentic [125I]-labeled standard) from rat; format: ADME, organism-based; settings: in vivo
Rattus norvegicus [10] = experiment: Distribution of radioactivity was determined in liver at 3h after intravenous administration of 1,3-Disubstituted Triacylglycerols in rats; format: ADME, organism-based; settings: in vivo
Rattus norvegicus [11] = experiment: Polyacrylamide Gel Electrophoresis (PAGE) to determined the concentration of high density lipoprotein (HDL) in rats after iv administration of [125I]-labeled 2-Oleolyl 1,3-disubstituted triglycerols was reported; format: ADME, organism-based; settings: in vivo
Rattus norvegicus [12] = experiment: Distribution of radioactivity was determined in heart at 3h after intravenous administration of [125I]-labeled 2-oleoglycerol 1,3-Bis-[omega-(3-amino-2,4,6-triiodophenyl)alkanoates] in rats; format: ADME, organism-based; settings: in vivo
Rattus norvegicus [13] = experiment: Distribution of radioactivity was determined in blood at 24 hr after intravenous administration of 1,3-Disubstituted Triacylglycerols in rats; format: ADME, organism-based; settings: in vivo
Rattus norvegicus [14] = experiment: Distribution of radioactivity was determined in spleen at 30 min after intravenous administration of [125I]-labeled 2-oleoglycerol 1,3-Bis-[omega-(3-amino-2,4,6-triiodophenyl)alkanoates] in rats; format: ADME, organism-based; settings: in vivo, 0.5 h
Rattus norvegicus [15] = experiment: Distribution of radioactivity was determined in blood at 24 hr after intravenous administration of [125I]-labeled 2-oleoglycerol 1,3-Bis-[omega-(3-amino-2,4,6-triiodophenyl)alkanoates] in rats; format: ADME, organism-based; settings: in vivo
Rattus norvegicus [16] = experiment: Distribution of radioactivity was determined in blood at 30 min after intravenous administration of [125I]-labeled 2-oleoglycerol 1,3-Bis-[omega-(3-amino-2,4,6-triiodophenyl)alkanoates] in rats; format: ADME, organism-based; settings: in vivo, 0.5 h
Rattus norvegicus [17] = experiment: Analysis of lipid-soluble radioactivity in plasma 24 hour after iv administration of [125I]-labeled 2-Oleoyl 1,3-disubstituted Triacylglycerols and represented as % CHCl3/CH3OH from rat; format: ADME, organism-based; settings: in vivo
Rattus norvegicus [18] = experiment: Distribution of radioactivity was determined in lung at 24 hr after intravenous administration of [125I]-labeled 2-oleoglycerol 1,3-Bis-[omega-(3-amino-2,4,6-triiodophenyl)alkanoates] in rats; format: ADME, organism-based; settings: in vivo
Rattus norvegicus [19] = experiment: Distribution of radioactivity was determined in thyroid at 24 hr after intravenous administration of [125I]-labeled 2-oleoglycerol 1,3-Bis-[omega-(3-amino-2,4,6-triiodophenyl)alkanoates] in rats; format: ADME, organism-based, Thyroid gland; settings: in vivo
Rattus norvegicus [20] = experiment: Distribution of radioactivity was determined in liver at 24 hr after intravenous administration of 1,3-Disubstituted Triacylglycerols in rats; format: ADME, organism-based; settings: in vivo
Rattus norvegicus [21] = experiment: Distribution of radioactivity was determined in lung at 3h after intravenous administration of [125I]-labeled 2-oleoglycerol 1,3-Bis-[omega-(3-amino-2,4,6-triiodophenyl)alkanoates] in rats; format: ADME, organism-based; settings: in vivo
Rattus norvegicus [22] = experiment: Polyacrylamide Gel Electrophoresis (PAGE) to determined the concentration of albumin(ALB) in rats after iv administration of [125I]-labeled 2-Oleolyl 1,3-disubstituted triglycerols was reported; format: ADME, organism-based; settings: in vivo
Rattus norvegicus [23] = experiment: Distribution of radioactivity was determined in spleen at 24 hr after intravenous administration of [125I]-labeled 2-oleoglycerol 1,3-Bis-[omega-(3-amino-2,4,6-triiodophenyl)alkanoates] in rats; format: ADME, organism-based; settings: in vivo
Rattus norvegicus [24] = experiment: Distribution of radioactivity was determined in spleen at 3h after intravenous administration of 1,3-Disubstituted Triacylglycerols in rats; format: ADME, organism-based; settings: in vivo
Rattus norvegicus [25] = experiment: Polyacrylamide Gel Electrophoresis (PAGE) to determined the concentration of below albumin(BA) in rats after iv administration of [125I]-labeled 2-Oleolyl 1,3-disubstituted triglycerols was reported; format: ADME, organism-based; settings: in vivo
Rattus norvegicus [26] = experiment: Distribution of radioactivity was determined in liver at 24 hr after intravenous administration of [125I]-labeled 2-oleoglycerol 1,3-Bis-[omega-(3-amino-2,4,6-triiodophenyl)alkanoates] in rats; format: ADME, organism-based; settings: in vivo
Rattus norvegicus [27] = experiment: Distribution of radioactivity was determined in thyroid at 30 min after intravenous administration of [125I]-labeled 2-oleoglycerol 1,3-Bis-[omega-(3-amino-2,4,6-triiodophenyl)alkanoates] in rats; format: ADME, organism-based, Thyroid gland; settings: in vivo, 0.5 h
Rattus norvegicus [28] = experiment: Distribution of radioactivity was determined in thyroid at 3h after intravenous administration of [125I]-labeled 2-oleoglycerol 1,3-Bis-[omega-(3-amino-2,4,6-triiodophenyl)alkanoates] in rats; format: ADME, organism-based, Thyroid gland; settings: in vivo
Rattus norvegicus [29] = experiment: Distribution of radioactivity was determined in liver at 30 min after intravenous administration of [125I]-labeled 2-oleoglycerol 1,3-Bis-[omega-(3-amino-2,4,6-triiodophenyl)alkanoates] in rats; format: ADME, organism-based; settings: in vivo, 0.5 h
Rattus norvegicus [30] = experiment: Distribution of radioactivity was determined in lung at 30 min after intravenous administration of [125I]-labeled 2-oleoglycerol 1,3-Bis-[omega-(3-amino-2,4,6-triiodophenyl)alkanoates] in rats; format: ADME, organism-based; settings: in vivo, 0.5 h
Rattus norvegicus [31] = experiment: Distribution of radioactivity was determined in blood at 3h after intravenous administration of [125I]-labeled 2-oleoglycerol 1,3-Bis-[omega-(3-amino-2,4,6-triiodophenyl)alkanoates] in rats; format: ADME, organism-based; settings: in vivo
Rattus norvegicus [32] = experiment: Polyacrylamide Gel Electrophoresis (PAGE) to determined the concentration of low density lipoprotein (LDL) in rats after iv administration of [125I]-labeled 2-Oleolyl 1,3-disubstituted triglycerols was reported; format: ADME, organism-based; settings: in vivo
Rattus norvegicus [33] = experiment: Distribution of radioactivity was determined in liver at 30 min after intravenous administration of 1,3-Disubstituted Triacylglycerols in rats; format: ADME, organism-based; settings: in vivo, 0.5 h
Rattus norvegicus [34] = experiment: Distribution of radioactivity was determined in blood at 48 hr after intravenous administration of 1,3-Disubstituted Triacylglycerols in rats; format: ADME, organism-based; settings: in vivo

- Distribution of radioactivity (Rattus norvegicus [1]): 22.4 % dose/organ
- Lipid-soluble radioactivity (Rattus norvegicus [2]): 89.9
- Distribution of radioactivity (Rattus norvegicus [3]): 0.65 % dose/g
- Lipid-soluble radioactivity (Rattus norvegicus [4]): 97.9
- Distribution of radioactivity (Rattus norvegicus [5]): 4.8 % dose/organ
- Lipid-soluble radioactivity (Rattus norvegicus [6]): 82.2
- Distribution of radioactivity (Rattus norvegicus [7]): 0.09 % dose/g
- Distribution of radioactivity (Rattus norvegicus [8]): 0.24 % dose/g
- Lipid-soluble radioactivity (Rattus norvegicus [9]): 96.8
- Distribution of radioactivity (Rattus norvegicus [10]): 66 % dose/organ
- Radioactivity (Rattus norvegicus [11]): 7%
- Distribution of radioactivity (Rattus norvegicus [12]): 0.2 % dose/g
- Distribution of radioactivity (Rattus norvegicus [13]): 1.1 % dose/organ
- Distribution of radioactivity (Rattus norvegicus [14]): 24.4 % dose/g
- Distribution of radioactivity (Rattus norvegicus [15]): 0.1 % dose/g
- Distribution of radioactivity (Rattus norvegicus [16]): 0.38 % dose/g
- Lipid-soluble radioactivity (Rattus norvegicus [17]): 80.6
- Distribution of radioactivity (Rattus norvegicus [18]): 0.26 % dose/g
- Distribution of radioactivity (Rattus norvegicus [19]): 5.13 % dose/g
- Distribution of radioactivity (Rattus norvegicus [20]): 34.9 % dose/organ
- Distribution of radioactivity (Rattus norvegicus [21]): 0.21 % dose/g
- Radioactivity (Rattus norvegicus [22]): 15%
- Distribution of radioactivity (Rattus norvegicus [23]): 10.4 % dose/g
- Distribution of radioactivity (Rattus norvegicus [24]): 11.3 % dose/organ
- Radioactivity (Rattus norvegicus [25]): 0.6%
- Distribution of radioactivity (Rattus norvegicus [26]): 4.2 % dose/g
- Distribution of radioactivity (Rattus norvegicus [27]): 0.54 % dose/g
- Distribution of radioactivity (Rattus norvegicus [28]): 0.91 % dose/g
- Distribution of radioactivity (Rattus norvegicus [29]): 7.01 % dose/g
- Distribution of radioactivity (Rattus norvegicus [30]): 0.26 % dose/g
- Distribution of radioactivity (Rattus norvegicus [31]): 0.2 % dose/g
- Radioactivity (Rattus norvegicus [32]): 4.8%
- Radioactivity per organ (Rattus norvegicus [33]): 66.8 % dose/organ
- Distribution of radioactivity (Rattus norvegicus [34]): 0.8 % dose per organ
Compound: CCCCCCCC/C=C/CCCCCCCC(=O)OC(COC(=O)CCCCCc1c(I)cc(I)c(N)c1I)COC(=O)CCCCCc1c(I)cc(I)c(N)c1I
